Experimental data published in paper PMC12053642, “Oral PRI-002 treatment in patients with MCI or mild AD: a randomized, double-blind phase 1b trial” (Nature Communications, 2025).
Values joined by “and” are separate entries in the source; they are usually repeats but may differ in a detail not shown here. Equal values may be shown once. Square brackets hold non-standard residues; d marks the D form. Peptide text beside a SMILES is read from it.

How the values were obtained:
[1] = test system: patients with MCI or mild dementia due to AD; assay: Adverse events assessment (AE/SAE, MedDRA 23.0), phase 1b trial; conditions: 300 mg q.d. oral 28 d, n=9
Protocol: During treatment, the frequency of study visits at the trial site was 14 days (Day 1, day 14, Day 28). A last assessment took place at Day 56. At Day 7 and Day 21 additional phone contacts for safety assessments were performed.
For safety assessment during baseline, at Day 14, 28, and 56, laboratory parameters and vital signs were measured, a physical exam was performed, and ECGs were recorded per protocol. […] In addition, nature, frequency, severity, and timing of AEs and SAEs were recorded at day 14, 28, and 56. Standardized AE reports were provided and analysed by the Data Safety and Monitoring Board (DSMB).
Primary endpoints included nature, frequency, severity, and timing of AEs and SAEs; changes in routine laboratory values, ECG, MRI, EEG, and vital signs.

[2] = test system: patients with MCI or mild dementia due to AD; assay: Other tests of the CERAD+ battery (TMT-A, TMT-B, figure drawing, figure recall, clock, WMS delayed recall); assay type: in vivo, human; set-up: Fig Recall (Figure Recall test), mean / Clock (Clock drawing test), mean / WMS delayed recall (Wechsler Memory Scale), mean / Fig Draw (Figure Drawing test), mean / Fig Recall / Clock / WMS delayed recall / Fig Draw: scale not given here; TMT-B (Trail Making Test B), mean / TMT-A / TMT-B: unit not given here; conditions: for Clock (Clock drawing test), mean / Fig Draw (Figure Drawing test), mean / Fig Recall (Figure Recall test), mean / TMT-A (Trail Making Test A), mean / TMT-B (Trail Making Test B), mean / WMS delayed recall (Wechsler Memory Scale), mean: 300 mg q.d. oral 28 d; for Clock / Fig Draw / Fig Recall / TMT-A / TMT-B / WMS delayed recall: individual patient values, PRI-002 group
Protocol: (§1) The effect of PRI-002 on cognition and function was tested by the CERAD+ battery and CDR-SB at baseline, Day 28, and Day 56, exploratory endpoints included the change of biomarkers (p-tau, t-tau, Aβ 1-40, Aβ 1-42 and Aβ oligomers) in CSF, blood plasma; change in CERAD+ test battery and CDR-SB scores.

[3] = test system: patients with MCI or mild dementia due to AD; assay: Clinical Dementia Rating Sum of Boxes (CDR-SB); assay type: in vivo, human; conditions: 300 mg q.d. oral 28 d
Protocol: as §1

CC(C)C[C@@H](NC(=O)[C@H](NC(=O)[C@H]1CCCN1)[C@H](C)O)C(=O)N[C@H](Cc1c[nH]cn1)C(=O)N[C@@H](C(=O)N[C@H](Cc1c[nH]cn1)C(=O)N[C@H](CC(N)=O)C(=O)N[C@H](CCCNC(=N)N)C(=O)N[C@H](CCCNC(=N)N)C(=O)N[C@H](CCCNC(=N)N)C(=O)N[C@H](CCCNC(=N)N)C(=O)N[C@H](CCCNC(=N)N)C(N)=O)[C@H](C)O [PRI-002] (H-[dP][dT][dL][dH][dT][dH][dN][dR][dR][dR][dR][dR]-NH2; N-terminus and C-terminus assumed)
AEs probably or possibly related to study treatment, number ([1]; Moderate (grade 2)): 2 | AEs probably or possibly related to study treatment, number ([1]; Severe (grade 3)): 0 | Gastrointestinal disorders, number of AEs ([1]; TOTAL, all grades): 1 | Injury, poisoning and procedural complications, number of AEs ([1]; TOTAL, all grades): 1 | Musculoskeletal and connective tissue disorders, number of AEs ([1]; TOTAL, all grades): 1 | Gastrointestinal disorders, number of AEs ([1]; grade 1 (Mild)): 1 | Injury, poisoning and procedural complications, number of AEs ([1]; grade 1 (Mild)): 1 | Musculoskeletal and connective tissue disorders, number of AEs ([1]; grade 1 (Mild)): 1 | Nervous system disorders, number of AEs ([1]; grade 1 (Mild)): 5 | Number of subjects with at least one AE ([1]; grade 1 (Mild)): 4 | Psychiatric disorders, number of AEs ([1]; grade 1 (Mild)): 3 | Total number of AEs ([1]; grade 1 (Mild)): 14 | Nervous system disorders, number of AEs ([1]; grade 2 (Moderate)): 2 | Number of subjects with at least one AE ([1]; grade 2 (Moderate)): 1 | Number of subjects with at least one AE ([1]; grade 3 (Severe)): 0 | Total number of AEs ([1]; grade 3 (Severe)): 0 | subjects with one or more AEs ([1]; safety population): 56% | Clock (Clock drawing test), mean ([2]; Day 1 (baseline), N=9): 1.7 | Clock ([2]; Day 1): 1.0 and 2.0 and 3.0 | Fig Draw ([2]; Day 1): 11 and 9 and 10 and 8 | Fig Recall ([2]; Day 1): 2 and 4 and 7 and 0 and 6 and 5 and 11 and 8 | TMT-A ([2]; Day 1): 98 and 74 and 60 and 47 and 28 and 43 and 103 and 33 and 58 | TMT-B ([2]; Day 1): 240 and 283 and 160 and 205 and 100 and 77 and 141 and 80 and 132 | WMS delayed recall ([2]; Day 1): 5 and 0 and 4 and 14 and 30 and 7 and 28 and 2 | Clock (Clock drawing test), mean ([2]; Day 28, N=8): 1.6 | Fig Draw (Figure Drawing test), mean ([2]; Day 28, N=8): 10.8 | Fig Recall (Figure Recall test), mean ([2]; Day 28, N=8): 6.9 | TMT-A (Trail Making Test A), mean ([2]; Day 28, N=8): 58.4 | TMT-B (Trail Making Test B), mean ([2]; Day 28, N=8): 137.5 | WMS delayed recall (Wechsler Memory Scale), mean ([2]; Day 28, N=8): 12.8 | Clock ([2]; Day 28): 4.0 and 2.0 and 1.0 | Fig Draw ([2]; Day 28): 11 and 9 | Fig Recall ([2]; Day 28): 0 and 6 and 5 and 11 and 9 and 4 | TMT-A ([2]; Day 28): 98 and 51 and 60 and 36 and 50 and 86 and 26 | TMT-B ([2]; Day 28): 270 and 115 and 127 and 87 and 80 and 155 and 62 and 204 | WMS delayed recall ([2]; Day 28): 2 and 0 and 10 and 9 and 34 and 14 and 27 and 6 | Fig Draw (Figure Drawing test), mean ([2]; Day 56, N=9): 10.9 | Fig Recall (Figure Recall test), mean ([2]; Day 56, N=9): 7.4 | TMT-A (Trail Making Test A), mean ([2]; Day 56, N=9): 53.9 | TMT-B (Trail Making Test B), mean ([2]; Day 56, N=9): 121.9 | WMS delayed recall (Wechsler Memory Scale), mean ([2]; Day 56, N=9): 15.0 | Clock ([2]; Day 56): 4.0 and 2.0 and 1.0 and 3.0 | Fig Draw ([2]; Day 56): 11 and 10 | Fig Recall ([2]; Day 56): 0 and 4 and 7 and 2 and 10 and 11 | TMT-A ([2]; Day 56): 70 and 79 and 45 and 88 and 28 and 40 and 51 and 30 and 54 | TMT-B ([2]; Day 56): 238 and 116 and 128 and 182 and 72 and 86 and 119 and 64 and 92 | WMS delayed recall ([2]; Day 56): 3 and 0 and 15 and 30 and 23 and 39 and 10 | CDR-SB, Mean ([3]; Day 28, n=8): 1.75 | CDR-SB, Mean ([3]; Day 56, n=9): 2.39
